Here are results for one molecule from publication PMC10819765, “The biochemically defined super relaxed state of myosin—A paradox” (The Journal of Biological Chemistry, 2023).

The experiment has as its target T1, porcine cardiac ventricle myosin (pc-HMM; beta-cardiac myosin heavy chain) (Sus scrofa, UniProt P79293).
T1 construct: gene MYH7; chymotryptic heavy meromyosin (pc-HMM); also S1 (pc-S1); with myosin light chains (RLC, essential light chain)
The experiment can be described thus: stopped-flow FRET (Trp to mant) displacement and multiple-turnover assay; kcat […] s^-1. It is filed as biochemical.

The structures appear in SMILES notation.

T1 sequence (P79293 whole entry): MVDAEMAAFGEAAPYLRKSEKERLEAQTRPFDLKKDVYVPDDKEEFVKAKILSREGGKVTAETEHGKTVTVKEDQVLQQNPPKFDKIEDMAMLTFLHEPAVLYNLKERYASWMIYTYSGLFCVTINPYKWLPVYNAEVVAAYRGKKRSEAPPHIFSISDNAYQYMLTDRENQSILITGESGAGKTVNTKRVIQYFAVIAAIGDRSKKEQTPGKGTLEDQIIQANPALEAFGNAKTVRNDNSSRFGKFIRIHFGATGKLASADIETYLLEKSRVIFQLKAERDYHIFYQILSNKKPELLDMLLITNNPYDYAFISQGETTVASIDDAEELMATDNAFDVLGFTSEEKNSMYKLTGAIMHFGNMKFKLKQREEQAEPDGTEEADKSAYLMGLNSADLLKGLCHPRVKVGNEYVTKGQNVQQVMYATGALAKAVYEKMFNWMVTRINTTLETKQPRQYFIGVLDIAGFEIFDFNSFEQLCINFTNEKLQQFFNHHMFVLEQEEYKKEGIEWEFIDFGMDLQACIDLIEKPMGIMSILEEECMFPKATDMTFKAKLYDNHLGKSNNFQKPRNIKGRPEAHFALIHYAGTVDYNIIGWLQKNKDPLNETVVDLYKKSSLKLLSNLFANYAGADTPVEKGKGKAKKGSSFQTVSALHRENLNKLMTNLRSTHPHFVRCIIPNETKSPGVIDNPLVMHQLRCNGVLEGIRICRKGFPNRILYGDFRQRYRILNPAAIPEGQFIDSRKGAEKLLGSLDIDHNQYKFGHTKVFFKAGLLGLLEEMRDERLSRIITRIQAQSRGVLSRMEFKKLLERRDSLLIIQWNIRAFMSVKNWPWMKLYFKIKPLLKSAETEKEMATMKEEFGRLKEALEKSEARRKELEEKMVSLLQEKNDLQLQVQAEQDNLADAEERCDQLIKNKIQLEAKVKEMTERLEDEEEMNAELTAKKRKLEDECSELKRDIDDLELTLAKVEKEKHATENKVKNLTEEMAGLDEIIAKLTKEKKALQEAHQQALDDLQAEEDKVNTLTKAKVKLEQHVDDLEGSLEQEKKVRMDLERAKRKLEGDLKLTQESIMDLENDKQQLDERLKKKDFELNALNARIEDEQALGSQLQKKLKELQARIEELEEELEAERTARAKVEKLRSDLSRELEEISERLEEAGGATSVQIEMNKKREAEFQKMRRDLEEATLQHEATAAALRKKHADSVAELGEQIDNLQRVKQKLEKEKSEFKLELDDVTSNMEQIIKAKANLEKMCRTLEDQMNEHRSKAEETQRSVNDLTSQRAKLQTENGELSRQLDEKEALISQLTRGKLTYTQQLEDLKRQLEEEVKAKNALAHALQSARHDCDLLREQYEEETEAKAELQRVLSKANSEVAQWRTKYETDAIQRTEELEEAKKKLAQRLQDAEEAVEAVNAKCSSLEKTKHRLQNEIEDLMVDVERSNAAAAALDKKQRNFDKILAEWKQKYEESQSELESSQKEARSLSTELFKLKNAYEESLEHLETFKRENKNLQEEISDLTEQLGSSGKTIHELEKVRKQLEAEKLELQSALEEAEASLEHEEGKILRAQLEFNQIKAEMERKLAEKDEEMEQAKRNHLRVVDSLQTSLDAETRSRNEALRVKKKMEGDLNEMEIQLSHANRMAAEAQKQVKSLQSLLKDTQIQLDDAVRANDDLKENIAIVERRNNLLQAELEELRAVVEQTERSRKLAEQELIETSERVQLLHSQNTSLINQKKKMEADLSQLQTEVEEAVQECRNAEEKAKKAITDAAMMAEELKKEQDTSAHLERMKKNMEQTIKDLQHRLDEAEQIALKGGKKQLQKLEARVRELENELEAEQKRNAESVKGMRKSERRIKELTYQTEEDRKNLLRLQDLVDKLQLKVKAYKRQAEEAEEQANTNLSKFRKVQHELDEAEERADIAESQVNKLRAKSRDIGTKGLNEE

`CNc1ccccc1C(=O)O[C@H]1C[C@H](n2cnc3c(N)ncnc32)O[C@@H]1COP(=O)(O)OP(=O)(O)OP(=O)(O)O` [mant.dATP]: the “kcat (s^-1) / Mean” value was 0.0282 s⁻¹.
